Assay [1] deals with WT mice. Briefly: Slope balance beam experiment, WT mice. The class given is in vivo, mouse. The note with it: 5 mg/kg/d intragastric. On the procedure: 7-week-old N171-82Q HD male mice were paired with female B6C3F1/J hybrid mice to obtain newborn mice. From 21 days of age, male mice were housed in separate cages. 0.5 cm of mouse tail tissue was removed to extract DNA to determine the genotype of the mouse, such that N171-82Q HD mice and WT mice needed for the experiment were obtained. The mice were randomly divided into WT Vehicle group (normal mice), WT test compound group (administration group of normal mice, 5 mg/kg/d, n=10), HD Vehicle group (blank group of HD mice, n=15), HD test compound group (administration groups 1-5 of HD mice, 5 mg/kg/d, n=10). The test compound was suspended in 1% CMC-Na solution and administered by intragastric administration until the end of the study. The weights of the mice were measured every week. Behavioral tests were performed at 12 weeks, 18 weeks, and 24 weeks of age to investigate motor function. At 20 weeks, 3 samples of tissue from each group were used for western blotting and immunohistochemistry. At 24 weeks, MRI scans were performed. At the end of the study, the effect of the test compound on the mortality of mice was evaluated. The software Sigmaplot 13.0 was used for statistical analysis of the data, and the data of each group was expressed as mean standard error (x±SEM). Behavioral test results were analyzed using two-way (genotype and processing factor) ANOVA and post-ho tests, the comparison and statistics of weight data were performed using two-way (genotype and age) ANOVA of repeated measures, and mortality was counted using Kaplan-Meier method. Other measurement data were analyzed by one-way ANOVA. P<0.05 was considered statistically significant. The motor function of mice was evaluated by the rotarod experiment and three types of balance beam experiments. The shorter the time for mouse to cross the balance beam, and the longer the time to drop, the stronger the coordination ability of the mouse. […] If the time for crossing the beams was greater than 60 seconds, it was recorded as 60 seconds.

For assay [2], the system named is WT mice. The assay is described as follows: In vivo MRI scan and brain volume measurement, WT mice. On the set-up: species or system mouse. The note with it: 5 mg/kg/d, administered until 24 weeks, n = 4. The method, then:
7-week-old N171-82Q HD male mice were paired with female B6C3F1/J hybrid mice to obtain newborn mice. From 21 days of age, male mice were housed in separate cages. 0.5 cm of mouse tail tissue was removed to extract DNA to determine the genotype of the mouse, such that N171-82Q HD mice and WT mice needed for the experiment were obtained. The mice were randomly divided into WT Vehicle group (normal mice), WT test compound group (administration group of normal mice, 5 mg/kg/d, n=10), HD Vehicle group (blank group of HD mice, n=15), HD test compound group (administration groups 1-5 of HD mice, 5 mg/kg/d, n=10). The test compound was suspended in 1% CMC-Na solution and administered by intragastric administration until the end of the study. The weights of the mice were measured every week. Behavioral tests were performed at 12 weeks, 18 weeks, and 24 weeks of age to investigate motor function. At 20 weeks, 3 samples of tissue from each group were used for western blotting and immunohistochemistry. At 24 weeks, MRI scans were performed. At the end of the study, the effect of the test compound on the mortality of mice was evaluated. The WT Vehicle group, WT test compound group, HD Vehicle group and HD test compound group were administered until 24 weeks, and 4 mice in each group were taken for in vivo MRI scanning and brain volume measurement. A 9.4 T MRI scanner equipped with three-axis gradient and animal imaging probes was used. The mice were anesthetized with 1% isoflurane. The breath of mice was monitored, and constant temperature was maintained throughout the scan. Three-dimensional T2 weighted fast spin echo sequence technology was used to obtain images. The imaging resolution and contrast of this technology were sufficient to automatically describe the volume of the mouse brain and substructures. […] These transformations encoded morphological differences between images and analyzed based on deformation morphological measurements (DBM) to detect regional changes in brain volume. The volume of the whole brain (Brain), […] was analyzed. […]

Take `O=c1cc(-c2ccc(N3CCCCC3)cc2)oc2c(O)c(O)ccc12` [Example 1, 7,8-dihydroxy-2-(4-(piperidin-1-yl)phenyl)-4H-chromen-4-one]: the “Time for crossing the beams, slope balance beam” value (shortened to “Time … slope balance beam”) with WT mice [1] (12 w) is recorded as 18.82 ± 28.33 s. Besides, the “Time … slope balance beam” value with WT mice [1] (18 w) was 12.45 ± 6.23 s. For the same molecule, the “Time … slope balance beam” value with WT mice [1] (24 w) was determined as 15.50 ± 6.11 s. In addition, in the assay with WT mice [2], the “MRI volume, Neurocortex” value is 20.11 ± 0.377 mm^3; the “MRI volume, Striatum” value was 88.99 ± 0.985 mm^3; the “MRI volume, Whole brain” value is reported as 489.08 ± 7.14 mm^3.

The record behind these values is patent publication US20200390755A1, “COMPOUND FOR TREATING NERVOUS SYSTEM DISEASES AND USE THEREOF” (SHAANXI MICOT TECHNOLOGY CO., LTD., priority 2018, published 2020).
